The text below walks through data of PMC11678782, “The Antioxidant and Anti-Inflammatory Activities of the Methanolic Extract, Fractions, and Isolated Compounds from Eriosema montanum Baker f. (Fabaceae)” (Molecules, 2024).

The nature of assay [1]: ABTS radical scavenging assay. To be noted: 5 min, 734 nm. As for the experimental part: Three in vitro antioxidant assays, namely, 2,2′-azinobis-(3-ethylbenzothiazoline-6-sulfonic acid (ABTS), 2,2′-diphenyl-1-picrylhydrazyl (DPPH), and ferric ion reducing antioxidant power (FRAP), were used to determine the antioxidant activity according to methods previously reported. Ascorbic acid (0 to 200 μg/mL) was used as positive control in these experiments, and Formula (1) below allowed us to evaluate the percentage of radical scavenging capacity. The inhibitory concentration (IC50) values were evaluated by plotting a nonlinear graph of percentage radical scavenging capacity versus logarithm of tested concentrations. Scavenging capacity (%) = [(A0 − A1)/A0] × 100(1) where A0 is absorbance of negative control, and A1 is absorbance of extract with ABTS^•+ radical cation.
Specifically, 2.45 mM of potassium persulfate and 7 mM of ABTS solution were dissolved in methanol and combined to create the ABTS^•+ radical cation, which was stored at 25 °C for a minimum of 16 h. At 734 nm, the absorbance of the generated ABTS^•+ was measured using a SpectraMax iD3 multi-mode microplate reader (Molecular Devices, San Jose, CA, USA) and calibrated to 0.70 ± 0.02. After carefully diluting 40 μL of EMME (1 mg/mL) with methanol and adding 160 μL of (ABTS^•+) radical cation, the 96-well microtiter plate was left to sit at 25 °C in the dark for five minutes. Using a SpectraMax iD3 multi-mode microplate reader, the absorbance values were measured at 734 nm against the blank (extract plus methanol without ABTS^•+). A nonlinear curve representing the percentage of ABTS^•+ scavenging capacity vs. a logarithm of tested concentrations was then plotted to determine the inhibitory concentration (IC50) values.
(§1) The IC50 values were calculated for each biological experiment using the nonlinear regression curve of the % inhibitory activity versus the logarithm (log10) of the various tested concentrations using GraphPad Prism 6.0 software (GraphPad Software, Inc., San Diego, CA, USA). The data are shown as mean ⁱ SEM (standard error of the mean) values, and all biological experiments were conducted in triplicate (n = 3). The statistical analysis was conducted using GraphPad Prism 6.0 software (GraphPad Software, Inc., San Diego, CA, USA). One-way analysis of variance (ANOVA) was used to compare the data across the tested samples and/or controls, and Student–Newman–Keuls or Dunnett’s tests were then performed. A p-value of less than 0.05 indicated a significant difference in the results.

Assay [2] concerns LPS-stimulated RAW 264.7 cells. Description: NO production inhibition in LPS-stimulated RAW 264.7 cells (Griess). The format is cell-based, murine. To be noted: for IC50: Mus musculus, RAW264.7, RAW 264.7, 2 h pre-treatment, 500 ng/mL LPS 24 h; for Inhibition of LPS-induced NO production: RAW 264.7, single-concentration test at 100 µg/mL, vs control cells. As for the experimental part: […] in a humidified environment containing 5% CO2 and 95% air. For NO and ROS production inhibition assays, the cytotoxic effect of tested samples at 100 µg/mL after 24 h of exposure was initially measured on RAW 264.7 cells (10,000 cells per well) using the standard MTT assay. Then, for NO production inhibition assay, RAW 264.7 cells were pre-treated with tested samples at 100 µg/mL for 2 h followed by addition of culture medium containing 500 ng/mL of lipopolysaccharide (LPS) (Merck, Darmstadt, Germany). After 24 h of incubation under standard cell-culture conditions, NO released was measured in cell supernatants using the Griess reagent (Sigma Aldrich, Darmstadt, Germany), and a SpectraMax iD3 multi-mode microplate reader (Molecular Devices, San Jose, CA, USA) was used to capture the absorbance readings at 540 nm. The ability of each tested material to reduce nitric oxide synthesis by LPS-stimulated RAW 264.7 macrophages in comparison to the negative control (cells treated with DMSO at 0.5% and LPS without extract) was used to calculate the percentage of NO production inhibition.
as §1
In general terms: The Griess reaction detects nitrite, a stable product of nitric oxide.

The test system of assay [3] is LPS-induced NO production. Also on record: method as in PMID 20183278, PMID 27087823, PMID 32253713. The settings on record: cited from earlier work.
Assay [4] deals with LPS-stimulated RAW 264.7 cells. Description: ROS production in LPS-stimulated RAW 264.7 cells (DCFH-DA). The format is cell-based, murine. To be noted: 25, 50, 100 µg/mL, 2 h pre-treatment, 200 ng/mL LPS 24 h. As to the method:
For ROS production inhibition, on a black/clear bottom 96-well plate, RAW 264.7 cells were seeded at a density of 10,000 cells per well. The cells were then pre-treated with non-toxic quantities of EMME and genistin (5) at 25, 50, and 100 µg/mL for two hours and then exposed to 200 ng/mL of LPS for twenty-four hours under standard culture conditions. Thereafter, the cells were washed twice with PBS, followed by the addition of 100 µL of fresh FBS-free medium containing 10 µM of the fluorescent probe 2′,7′-dichlorodihydrofluorescein diacetate (DCFH-DA) (Sigma-Aldrich, Darmstadt, Germany). After 30 min of additional incubation under usual culture conditions, PBS was added to the plate in place of the fluorescent probe. The fluorescence of the cells was measured using a SpectraMax iD3 multi-mode microplate reader (Molecular Devices, San Jose, CA, USA) at 485 nm (excitation) and 535 nm (emission). The percentage of cells treated with DMSO 0.5% without LPS, known as the negative control, was used to express the intracellular ROS levels. Using an excitation/emission filter (480/535 nm) on a 40× objective, images were taken with a camera (Flexacam C1, Leica Microsystems, Wetzlar, Germany) attached to a fluorescence microscope (Leica Microsytems GmbH, Wetzlar, Germany).

Details of assay [5]: method as in PMID 12510840, PMID 22997529. The settings on record: ONOO−, DPPH•, ABTS•+; cited from earlier work. On the technique in general: DPPH is a stable violet radical that fades when it is reduced.

The structures appear in SMILES notation. In brackets after ≈: the same amount, converted by molar mass. Entries after “also recorded” stand apart in the source; their conditions may differ.

Usually IC50 stands for the point on the concentration scale where inhibition reaches its midpoint. `CCCCCCCCCCCCCCCC` [Compound 1, n-hexadecane]: the “IC50 ABTS” value in assay [1] is given as greater than 100 µg/mL. The IC50 in assay [2] is greater than 100 µg/mL.

As for `CCCCCCCCCCCCCCCCCCCCCCCO` [Compound 3, tricosan-1-ol], the “IC50 ABTS” value in assay [1] is reported as greater than 100 µg/mL. The 50% inhibitory concentration (IC50) in assay [2] was greater than 100 µg/mL.

For the molecule `O=c1c2c(O)cc(O)cc2oc2oc3cc(O)ccc3c12` [Compound 4, lupinalbin A], the “IC50 ABTS” value in assay [1] was greater than 100 µg/mL. For the same molecule, in assay [2], the IC50 was greater than 100 µg/mL.

As to `O=c1c(-c2ccc(O)cc2)coc2cc(O[C@@H]3O[C@H](CO)[C@@H](O)[C@H](O)[C@H]3O)cc(O)c12` [Compound 5, genistin], the “Effect on LPS-induced NO production” value in assay [3] is reported as “decreases LPS-induced NO production”. Moreover, the “Inhibition of LPS-induced ROS production” value in assay [4] is “markedly and dose-dependently reduced”; in assay [4] (listed as Genistin (5)), “able to inhibit”; in assay [4] (listed as genistin (5)), “moderate activity; also recorded: moderately effective”. Further, the “IC50 ABTS” value in assay [1] is listed as 91.02 ± 1.33 µg/mL (≈ 211 µM); in assay [1] (listed as genistin), 99.89 µg/mL (≈ 231 µM). Besides, the IC50 in assay [2] was 66 ± 4.21 µg/mL (≈ 153 µM). Further, the figures for the “Inhibition of LPS-induced NO production” value in assay [2], in assay [2] (listed as Genistin (5)) and in assay [2] (listed as genistin (5)) were “significantly inhibited”, “able to inhibit” and “moderate activity; also recorded: moderately effective”, respectively. Also, in assay [5], the “Antioxidant properties via scavenging activity” value was “moderate antioxidant properties”.

As for `CO[C@H]1[C@H](O)[C@@H](O)[C@@H](O)[C@H](O)[C@@H]1O` [Compound 6, D-pinitol], in assay [1], the “IC50 ABTS” value is on record as greater than 100 µg/mL. Besides, the half-maximal inhibitory concentration (IC50) in assay [2] is greater than 100 µg/mL.

On to `CC[C@H](/C=C/[C@@H](C)[C@H]1CC[C@H]2[C@@H]3CC=C4C[C@@H](O[C@@H]5O[C@H](CO)[C@@H](O)[C@H](O)[C@H]5O)CC[C@]4(C)[C@H]3CC[C@]12C)C(C)C` [Compound 7, stigmasterol glucoside], for which the “IC50 ABTS” value in assay [1] was greater than 100 µg/mL. Besides, the IC50 in assay [2] is greater than 100 µg/mL.
